Source: patent US20110160399A1, “HISTONE MODIFICATION INHIBITOR SPECIFIC TO TARGET GENE” (NIHON UNIVERSITY, priority 2008, published 2011)

Columns and labels:
[1] = tested on: acetylation of histone H3 lysine 9 in the genomic region of the LARP1 gene; assay: Genomic region-specific acetylation analysis (ChIP, anti-histone H3K9 acetyl antibody), LARP1 gene region; assay type: cell-based, human; settings: HeLa cells, 150 nM, 7 days; FIG. 10
Experimental: In a 10% fetal bovine serum-containing DMEM medium prepared to contain the synthesized compound (SAHA+p16 PIP or SAHA+non-targeting PIP) or SAHA at a final concentration of 150 nM, HeLa cells were cultured at 37° C. in the presence of 5% CO2 for 7 days. After culture, 5×10^6 to 1×10^7 confluent cells were harvested in 100 mm diameter cell culture dishes (Corning 430167) and then subjected to chromatin immunoprecipitation assay with a MILIPORE 17-295 Chromatin Immunoprecipitation (ChIP) assay kit.
The detailed procedures used are as follows. To the harvested cells cultured for 7 days, formalin was added at a final concentration of 1% and incubated at 37° C. for 10 minutes to fix the cells, whereby proteins and DNAs were crosslinked within the cells. Then, glycine was added at a final concentration of 0.25 M and the supernatant was removed, followed by washing the cell layer. Then, the cell layer was treated with 220 μl lysis buffer and the cell lysate was collected with a scraper. […] Real-time RT-PCR.” More specifically, the purified DNA was quantitatively analyzed with SYBR premix EX Taq (TAKARA BIO, Shiga, Japan) in a Thermal Cycler Dice Real-time System TP-800 (TAKARA BIO, Shiga, Japan). […]

[2] = tested on: LOVO (human large bowel cancer cell line); assay: Cell proliferation assay (WST-8) on LOVO cells; assay type: cell-based; settings: 72 hours
Experimental: Next, the synthesized compounds were verified by WST-8 assay for their ability to suppress cancer cell proliferation.
Cell lines of HeLa (human uterine cervical cancer cell line), LOVO, RKO and SW480 (each of which was a human large bowel cancer cell line) were each cultured at 37° C. under 5% carbon dioxide conditions using Dulbecco's modified Eagle's medium (DMEM, Nacalai Tesque, Inc., Japan) supplemented with 10% fetal bovine serum (FBS: JRH bioscience, USA), antibiotics (50 U/ml penicillin and 50 μg/ml streptomycin) and 1 mM sodium pyruvate. […]
Each cell line seeded at 3×10^3 cells/well in a MICROTEST tissue culture plate (96 well, FALCON) was cultured at 37° C. under 5% carbon dioxide conditions for 24 hours, and then cultured in the presence of various concentrations of PI polyamide for an additional 72 hours. After completion of the culture, 10 μl of viable cell counting reagent SF (Nacalai Tesque, Inc., Japan) was added to each well and the absorbance at 450 nm was measured by ARVO EX (PerkinElmer). During the period from reagent addition until assay, incubation was continued at 37° C. in the presence of 5% CO2 until the absorbance reached about 1.2 to 2.0 in the control sample where only 50% DMSO was added to the cells.

CN(C)CCCNC(=O)CCNC(=O)c1cc(NC(=O)c2nc(NC(=O)c3nc(NC(=O)CCNC(=O)c4cc(NC(=O)c5nc(NC(=O)CCCNC(=O)c6cc(NC(=O)c7nc(NC(=O)CCNC(=O)c8cc(NC(=O)c9cc(NC(=O)c%10nc(NC(=O)CCNC(=O)CCNC(=O)c%11ccc(NC(=O)CCCCCCC(=O)NO)cc%11)cn%10C)cn9C)cn8C)cn7C)cn6C)cn5C)cn4C)cn3C)cn2C)cn1C [SAHA+p16 PIP, SAHA-ββImPyPyβImPyγImPyβImImPyβDp]
acetylation of histone H3 lysine 9 in the genomic region of the LARP1 gene [1]: enhanced acetylation | enhancement of histone H3 lysine 9 acetylation in the LARP1 genomic region compared to SAHA alone or SAHA+non-targeting PIP [1]: about 2.5 fold | suppression of LOVO cell proliferation at 100 nM ([2]; 100 nM, FIG. 4): not suppressed | inhibition of LOVO cell proliferation ([2]; WST-8, FIG. 4): inhibit proliferation
